Laboratory results as given in patent US20170246223A1 (priority 2016, published 2017).

Tests used:
E. coli = test: in vitro cytotoxicity screen of drugs co-incubated with E. coli (tumour cell survival, MTS); format: cell-based, E. coli Nissle 1917; details: drug co-incubated with E. coli, bacteria removed, filtrate applied to tumour cells; change relative to reference cytotoxic effect (drug without bacteria)
Protocol: (§1) 1. Bacteria and Drug are mixed in DMEM medium, and co-incubated for 3 h at 37° C. 2. The drug is separated from bacteria using centrifugation and filtration. 3. The filter sterilised DMEM containing the transformed drug is applied to tumour cells in a 96 well plate. 4. Tumour cell viability is evaluated via the MTS assay for end point measurements.
Bioluminescent E. coli was described by us previously and cultured in the presence of […] erythromycin. Listeria welshimeri Serovar 6B SLCC5334 was purchased from ECACC and cultivated at 37° C. in Brain Heart Infusion (BHI) medium. B. breve UCC2003 and Lactococcus lactis (UCC Culture Collection) was routinely grown at 37° C. in reinforced clostridial medium and M17 medium respectively (Oxoid, Basingstoke, UK). All lactobacilli strains were a kind gift of Dr. Cormac Gahan, UCC School of microbiology, and were grown in lactobacillus MRS broth (Beckton Dickinson). The E. coli nitroreductase deletion mutants and parent strains were kindly provided by Dr. Antonio Valle and grown in LB broth/agar with appropriate antibiotics. The strain Δ+A was created by transforming AB502 (streptomycin, kanamycin sensitive derivative of parent strain AB1157) with the plasmid pNZ44 (chloramphenicol resistance) carrying the gene nfsA. The strain Δ+B was created by transforming AB502 with the plasmid pTrc99A (ampicillin resistance) containing the gene nfsB (see below).
Microtitre plates (96-well) were pre-seeded with 4000 cells/well in appropriate medium for each cell line and allowed to attach overnight. The next day, bacteria were cultured to log-phase or stationery phase (Gram-positive) resuspended in PBS and added to 2 mls of DMEM to an OD600mn of 0.1-0.2 for E. coli 0.05 for Lactococcus lactis, and 0.3-0.4 for the rest of the Grand-positives. Each strain was exposed for 2-3 h to drug in a tissue culture incubator. Bacteria were separated from the drug by centrifugation and filter sterilisation using 0.2 μm pore filters (Starsted) after which 200 μl of filtrate was transferred to each well. […] Cytotoxicity was quantified using an MTS staining with the Cell Titre 96 AQueous One solution Cell Proliferation Assay (Promega). The plates were measured and analysed in a Spectra max M2 (Molecular devices) spectrophotometer at 490 nm.

CT26 tumours = test: Subcutaneous flank CT26 tumours in Balb/c mice, bacteria i.t. plus drug i.p., survival; format: in vivo
Protocol: Subcutaneous flank CT26 tumours growing in Balb/c mice were injected i.t with bacteria or PBS vehicle alone. Gemcitabine (60 mg/kg) was injected i.p. five times at three day intervals. FIG. 3A) Tumour volume (%) relative to the first day of gemcitabine injection (day 0) is shown. *P<0.03, **P=0.002 for gemcitabine alone versus gemcitabine+bacteria. […] Data are expressed as mean±SEM of 4 to 8 individual mice per group.
Subcutaneous flank CT26 tumours growing in Balb/c mice were injected i.t with bacteria or PBS vehicle alone. CB1954 (20 mg/kg) was injected i.p. for the duration of the experiment at 3 day intervals. FIG. 4A) Tumour volume (%) relative to the first day of CB1954 injection (day 0) is shown. […] P=0.0374). Data are expressed as mean±SEM of 3-5 individual mice per group.
FIGS. 12A-12D: Tumour therapy via in vivo activation of prodrugs. BALB/c mice bearing subcutaneous CT26 flank tumours colonised by E. coli Nissle 1917 received IP injections of CB1954+PBS, 5-FC+PBS, CB1954+5-FC or PBS three times per week. Tumours were monitored for changes in volume and luminescence (where applicable) from live bacteria on each treatment day. FIG. 12A) The change in bacterial luminescence (relative to day 0) from tumour colonising luminescent E. coli is shown. […] FIG. 12B) Changes in CT26 tumour volume were monitored until the first death in the group determined by a predefined endpoint. FIG. 12C-12D) Survival plot of each group starting from the first day of bacteria/drug administration.
Animals and tumour induction: 6-8 week old female BALB/c mice weighing approximately 18-20 g were kept as previously described. For tumour induction, a 200 μl suspension of 2×10^5 CT26 cells in serum free Dulbecco's Modified Eagle's Medium (DMEM) culture medium were injected subcutaneously into the flank of BALB/c mice. The viability of inoculated cells was determined using the Nucleocounter system (ChemoMetec). Tumour growth was monitored three times per week by caliper measurement and mice were randomly assigned to groups when the tumours reached approximately 100 mm^3 in volume. Mice were culled once tumours reached 1.5×1.5 cm in size (predetermined endpoint).
Bacterial administration to mice: Bacteria were grown overnight in LB medium and in a shaking incubator at 37° C. These bacteria were used to inoculate fresh growth medium and allowed to grow until reaching OD600 0.6. […]
Statistical analysis For biological in vitro and in vivo assays, two-sided, paired student's t test with 95% confidence or Mann Whitney U test were employed to investigate statistical differences, using GraphPad Prism@5.0 or Microsoft Excel 12. […] Statistical significance of survival between groups in murine experiments was determined using the Log-rank (Mantel-Cox) Test. […]

L. welshimeri = test: in vitro cytotoxicity screen of drugs co-incubated with L. welshimeri (tumour cell survival, MTS); format: cell-based, Listeria welshimeri Serovar 6B SLCC5334; details: drug co-incubated with L. welshimeri, bacteria removed, filtrate applied to tumour cells; change relative to reference cytotoxic effect (drug without bacteria)
Protocol: as §1
Bioluminescent E. coli was described by us previously and cultured in the presence of […] erythromycin. Listeria welshimeri Serovar 6B SLCC5334 was purchased from ECACC and cultivated at 37° C. in Brain Heart Infusion (BHI) medium. B. breve UCC2003 and Lactococcus lactis (UCC Culture Collection) was routinely grown at 37° C. in reinforced clostridial medium and M17 medium respectively (Oxoid, Basingstoke, UK). All lactobacilli strains were a kind gift of Dr. Cormac Gahan, UCC School of microbiology, and were grown in lactobacillus MRS broth (Beckton Dickinson). […]
Microtitre plates (96-well) were pre-seeded with 4000 cells/well in appropriate medium for each cell line and allowed to attach overnight. […] Cytotoxicity was quantified using an MTS staining with the Cell Titre 96 AQueous One solution Cell Proliferation Assay (Promega). The plates were measured and analysed in a Spectra max M2 (Molecular devices) spectrophotometer at 490 nm.

SMILES	Cytotoxicity E. coli (E. coli)	also measured
Nc1nc(=O)[nH]cc1F [5-fluorocytosine]	Up	
OC[C@H]1O[C@@H](n2cnc3c(S)ncnc32)C[C@@H]1O [6-Mercaptopurine-2′-deoxyriboside]	Up	
C[N+](C)([O-])CCNc1ccc(NCC[N+](C)(C)[O-])c2c1C(=O)c1c(O)ccc(O)c1C2=O [AQ4N]	Up	
CC1(C)CCC2=C(O1)c1ccccc1C(=O)C2=O [B-Lapachone]	Down	
NC(=O)c1cc(N2CC2)c([N+](=O)[O-])cc1[N+](=O)[O-] [CB1954]	Up	median survival post Day 0 (CT26 tumours; CB1954+bacteria group, E. coli i.t., CB1954 20 mg/kg i.p. at 3 day intervals, P=0.0374 vs CB1954 alone): 26 days; median survival post Day 0 (CT26 tumours; CB1954 alone group (PBS i.t.), 20 mg/kg i.p. at 3 day intervals): 8 days
Nc1nc(Cl)nc2c1ncn2[C@H]1C[C@H](O)[C@@H](CO)O1 [Cladribine]	reduced cytotoxic effect and Down	
COc1cccc2c1C(=O)c1c(O)c3c(c(O)c1C2=O)C[C@@](O)(C(C)=O)C[C@@H]3O[C@H]1C[C@H](N)[C@H](O)[C@H](C)O1 [Daunorubicin]	Down	
COc1cccc2c1C(=O)c1c(O)c3c(c(O)c1C2=O)C[C@@](O)(C(=O)CO)C[C@@H]3O[C@H]1C[C@H](N)[C@H](O)[C@H](C)O1 [Doxorubicin]	Down	
COc1cc([C@@H]2c3cc4c(cc3[C@@H](O[C@@H]3O[C@@H]5CO[C@@H](C)O[C@H]5[C@H](O)[C@H]3O)[C@H]3COC(=O)[C@H]23)OCO4)cc(OC)c1OP(=O)(O)O [Etoposide phosphate]	Down	
Nc1nc(F)nc2c1ncn2[C@@H]1O[C@H](COP(=O)(O)O)[C@@H](O)[C@@H]1O [Fludarabine de phosphate]	Up	Cytotoxicity L. welshimeri (L. welshimeri): Up
Nc1ccn([C@@H]2O[C@H](CO)[C@@H](O)C2(F)F)c(=O)n1 [Gemcitabine]	Down	median survival post Day 0 (CT26 tumours; gemcitabine alone group (PBS i.t.), 60 mg/kg i.p. five times at three day intervals): 28 days; median survival post Day 0 (CT26 tumours; gemcitabine+bacteria group, E. coli i.t., gemcitabine 60 mg/kg i.p. five times at three day intervals, P=0.008 vs gemcitabine alone): 17 days
CC(=O)[C@]1(O)Cc2c(O)c3c(c(O)c2[C@@H](O[C@H]2C[C@H](N)[C@H](O)[C@H](C)O2)C1)C(=O)c1ccccc1C3=O [Idarubicin]	Down	
CC1=CC(=O)c2ccccc2C1=O [Menadione]	Down	
O=C1c2c(O)ccc(O)c2C(=O)c2c(NCCNCCO)ccc(NCCNCCO)c21 [Mitoxantrone]	Down	
O=c1[nH]c(=O)n(C2CCCO2)cc1F (stereo not drawn) [Tegafur]	Up	
Nc1ncnc2c1ncn2[C@@H]1O[C@H](CO)[C@@H](O)[C@@H]1O [Vidarabine]	Down	
